What was measured:
Assay type in all cases: cell-based
[1] = test system: colorectal adenocarcinoma cell line HT29; assay: Growth curve (cell count every 24 hours) of cell line HT29; conditions: HT29, 96 hours of stimulation; 5-ASA 20 mM, VD3 10^-7 M, alone or combined; control 14 expansions
Method: The cell lines CaCo2 and HT29 of colorectal adenocarcinoma obtained from the ATCC (Rockville, Md., USA) were grown in a DMEM culture medium (Euroclone, Devon, UK), to which were added 10% foetal bovine serum (Lonza, Walkersville, Md., USA) inactivated at heat and 1 mM of L-glutamine (Euroclone). The 5-aminosalicylic acid (5-ASA, SOFAR S.p.A., Milan, Italy) and acetylsalicylic acid (ASA, Sigma Aldrich, St Louise, Mo., USA) were dissolved in a culture medium in a concentration of respectively 20 and 10 mM. […] The QRT-PCR was then carried out with an ABI PRISM 7900 (Applied Biosystems) sequence detecting system for quantifying the relative levels of mRNA measured in the various samples. […] The QRT-PCR signals were evacuated using the corresponding quantification method ΔΔ[…]. Relative gene expression data were analysed using real-time quantitative PCR and the 2(-Delta Delta C(T)) Method. […] The values obtained were expressed as a relative quantity (RQ) of the variation in the messenger levels. The colorectal adenocarcinoma cell line HT29, which was chosen for its responsiveness to the VD3 deriving from the corresponding VDR receptor, was subjected to “in vitro” treatment with 5-ASA 20 mM and VD3 10^-7 M, used individually and in association, in order to quantify the antiproliferative effect determined by the compounds analysed on cancerous colonocytes. […]

[2] = test system: μ-protocadherin, E-cadherin, p21^waf1 and KLF4 messenger expression in HT29 cells; assay: QRT-PCR analysis of mRNA of genes regulating proliferation, differentiation and apoptosis in HT29 cells; conditions: HT29, 96 hours; 5-ASA 20 mM, VD3 10^-7 M, alone or combined; RQ vs calibrator, normalised on GAPDH
Method: The cell lines CaCo2 and HT29 of colorectal adenocarcinoma obtained from the ATCC (Rockville, Md., USA) were grown in a DMEM culture medium (Euroclone, Devon, UK), to which were added 10% foetal bovine serum (Lonza, Walkersville, Md., USA) inactivated at heat and 1 mM of L-glutamine (Euroclone). The 5-aminosalicylic acid (5-ASA, SOFAR S.p.A., Milan, Italy) and acetylsalicylic acid (ASA, Sigma Aldrich, St Louise, Mo., USA) were dissolved in a culture medium in a concentration of respectively 20 and 10 mM. The vitamin D3 (VD3) (1 alpha, 25 dihydroxyvitamin D3, calcitriol, Sigma Aldrich) was diluted in the culture medium at a concentration of 10^-7 M. For the experiments conducted with the cell line HT29, 300,000 cells were sown for each sample and 5-ASA, vitamin D3 or the combination of 5-ASA and VD3 were added to each well. For the experiments conducted with the cell line CaCo2, on the other hand, 300,000 cells were again sown for each sample, but adding 5-ASA or ASA to each well. The treated cells were then subjected to a cell count every 24 hours to monitor the anti-proliferation effect of the different stimuli. After 96 hours of treatment all the cells were collected, resorbed and the RNA was extracted by means of the “Qiagen total RNA purification kit” following the manufacturer's instructions (Qiagen, Valencia, Calif.). The integrity and concentration of the RNA were tested using the Bio-Analyzer technique (Applied Biosystem, Foster City, Calif.). 100 ng total of RNA were then retrotranscribed using the High Capacity cDNA Archive Kit (Applied Biosystems) on the basis of the instructions provided by the manufacturer. The QRT-PCR was then carried out with an ABI PRISM 7900 (Applied Biosystems) sequence detecting system for quantifying the relative levels of mRNA measured in the various samples. The triggers and probes for amplifying the mRNA of the μ-protocadherin, E-cadherin, p21^waf-1, KLF4 and glyceraldehyde 3-phosphate dehydrogenase (GAPDH) were devised by Applied Biosystems. Each sample of cDNA was processed in triplicate in 50 μl of reaction volume using the Taqman Universal PCR Master Mix (Applied Biosystems). Thermal cyclisation was started with initial denaturation at 50° C. for 2 minutes and at 90° C. for 10 minutes followed by 40 cycles of 15 seconds at 95° C. and 1 minute at 60° C. The QRT-PCR signals were evacuated using the corresponding quantification method ΔΔ[…]. Relative gene expression data were analysed using real-time quantitative PCR and the 2(-Delta Delta C(T)) Method. Methods 2001; 25(4):402-8). This procedure calculates the relative difference in gene expression of the target gene normalised on the endogen control (GAPDH) and compared with a calibrating sample. The values obtained were expressed as a relative quantity (RQ) of the variation in the messenger levels. In order to check at the molecular level the effects determined on the cell line HT29 by the association 5-ASA/VD3, “Real Time”, quantitative RT-PCR was used to analyse the expression of a series of genes the protein products of which are involved in the regulation of the proliferation, differentiation and apoptosis of cancer colonocytes such as μ-protocadherin, E-cadherin, p21^waf1 and KLF4. This analysis was conducted on cell cultures subjected to 96 hours of treatment with the studied drugs, which were used in the previously disclosed concentrations.

[3] = test system: colorectal adenocarcinoma cell line CaCo2; assay: Growth curve (cell count) of cell line CaCo2 treated with 5-ASA and ASA; conditions: CaCo2, 96 hours; for cellularity "fold change" value / mortality / survival of treated cells: concentration of 20 mM of the analysed drugs
Method: (§1) The cell lines CaCo2 and HT29 of colorectal adenocarcinoma obtained from the ATCC (Rockville, Md., USA) were grown in a DMEM culture medium (Euroclone, Devon, UK), to which were added 10% foetal bovine serum (Lonza, Walkersville, Md., USA) inactivated at heat and 1 mM of L-glutamine (Euroclone). The 5-aminosalicylic acid (5-ASA, SOFAR S.p.A., Milan, Italy) and acetylsalicylic acid (ASA, Sigma Aldrich, St Louise, Mo., USA) were dissolved in a culture medium in a concentration of respectively 20 and 10 mM. The vitamin D3 (VD3) (1 alpha, 25 dihydroxyvitamin D3, calcitriol, Sigma Aldrich) was diluted in the culture medium at a concentration of 10^−7 M. For the experiments conducted with the cell line HT29, 300,000 cells were sown for each sample and 5-ASA, vitamin D3 or the combination of 5-ASA and VD3 were added to each well. For the experiments conducted with the cell line CaCo2, on the other hand, 300,000 cells were again sown for each sample, but adding 5-ASA or ASA to each well. The treated cells were then subjected to a cell count every 24 hours to monitor the anti-proliferation effect of the different stimuli. After 96 hours of treatment all the cells were collected, resorbed and the RNA was extracted by means of the “Qiagen total RNA purification kit” following the manufacturer's instructions (Qiagen, Valencia, Calif.). The integrity and concentration of the RNA were tested using the Bio-Analyzer technique (Applied Biosystem, Foster City, Calif.). 100 ng total of RNA were then retrotranscribed using the High Capacity cDNA Archive Kit (Applied Biosystems) on the basis of the instructions provided by the manufacturer. The QRT-PCR was then carried out with an ABI PRISM 7900 (Applied Biosystems) sequence detecting system for quantifying the relative levels of mRNA measured in the various samples. The triggers and probes for amplifying the mRNA of the μ-protocadherin, E-cadherin, p21^waf-1, KLF4 and glyceraldehyde 3-phosphate dehydrogenase (GAPDH) were devised by Applied Biosystems. Each sample of cDNA was processed in triplicate in 50 μl of reaction volume using the Taqman Universal PCR Master Mix (Applied Biosystems). Thermal cyclisation was started with initial denaturation at 50° C. for 2 minutes and at 90° C. for 10 minutes followed by 40 cycles of 15 seconds at 95° C. and 1 minute at 60° C. The QRT-PCR signals were evacuated using the corresponding quantification method ΔΔCt (Livak K J, Schmittgen T D. Relative gene expression data were analysed using real-time quantitative PCR and the 2(-Delta Delta C(T)) Method. Methods 2001; 25(4):402-8). This procedure calculates the relative difference in gene expression of the target gene normalised on the endogen control (GAPDH) and compared with a calibrating sample. The values obtained were expressed as a relative quantity (RQ) of the variation in the messenger levels.
In order to characterise further the profile of efficacy and safety associated with the chemopreventive properties of 5-ASA, a series of experiments was conducted of the same type as the series explained previously, in which a comparative analysis was conducted of the biological effects determined on cancer colonocytes following treatment with 5-ASA and with aspirin (ASA), i.e. the main drug of the family of NSAIDs. […]

[4] = test system: μ-protocadherin, E-cadherin, p21^waf1 and KLF4 messenger expression in CaCo2 cells; assay: QRT-PCR analysis of mRNA of β-catenin signal pathway genes in CaCo2 cells; conditions: CaCo2, 96 hours; 5-ASA 20 mM, ASA 10 mM
Method: as §1
On the samples taken from these cell cultures and from other cultures used as a control, the levels of messenger RNA of the genes listed in the previous paragraph (see FIG. 2) was determined by Quantitative Real Time RT-PCR. The obtained results have shown that the messenger expression of the μ-protocadherin, E-cadherin, p21^waf1 and KLF4 genes were induced respectively 3.8, 2.4, 8.0 and 5.5 times after treatment with 5-ASA 20 mM (FIG. 4), confirming the data previously observed on the cell line HT29. […] This datum is not surprising, considering the redundancy and heterogeneity that characterise molecular regulation of the gene p21^waf1, the expression of which is not only regulated by the proliferation signalling pathway of the β chain, explored in our experimental conditions through the evaluation of the codifying genes for μ-protocadherin, E-cadherin and KLF4, but also by numerous signalling pathways.

SMILES	number of cell expansions compared with the initial number of cells [1]	increase in messenger expression of E-cadherin [2]	increase in messenger expression of KLF-4 [2]	increase in messenger expression of p21 [2]	increase in messenger expression of μ-protocadherin [2]	cellularity "fold change" value [3]	mortality / survival of treated cells [3]	induction of messenger expression of E-cadherin [4]	induction of messenger expression of KLF4 [4]	induction of messenger expression of p21^waf1 [4]	induction of messenger expression of μ-protocadherin [4]	antiproliferative effect of ASA 10 mM compared with 5-ASA 20 mM ([3]; 10 mM ASA vs 20 mM 5-ASA (equivalents))
C=C1/C(=C\C=C2/CCC[C@]3(C)[C@@H]([C@H](C)CCCC(C)(C)O)CC[C@@H]23)C[C@@H](O)C[C@@H]1O [VD3, 1 alpha, 25 dihydroxyvitamin D3]	10 expansions	1.7 times	1.6 times	1.5 times	1 times	–	–	–	–	–	–	–
Nc1ccc(O)c(C(=O)O)c1 [5-ASA, 5-aminosalicylic acid]	8 expansions	2.2 times	2.2 times	2.9 times	2.5 times	1	all the cells treated with 5-ASA survive	2.4 times	5.5 times	8.0 times	3.8 times	–
CC(=O)Oc1ccccc1C(=O)O [ASA, acetylsalicylic acid]	–	–	–	–	–	0.2	80%	does not, on the other hand, induce	does not, on the other hand, induce	5.8 times	does not, on the other hand, induce	absolutely superimposable antiproliferative effect

— patent publication US10905700B2, “Chemoprevention of colorectal cancer” (SOFAR SPA, priority 2012, dated 2021)
